Patent US8853418B2, “Cyclopentylpyrazoles as N-type calcium channel blockers” (Janssen Pharmaceutica NV, priority 2012, dated 2014)
Where two headings read alike, the source gives them in different places.

Legend:
[1] = molecular target: N-type calcium channel (α1B (Cav2.2), β3 and α2δ subunits) (Homo sapiens, UniProt Q00975); assay: Functional Assay: Antagonism of N-Type Calcium Channel (FDSS calcium mobilization, KCl depolarization); type: cell-based; conditions: for IC50: HEK cell line, 50 mM KCl depolarization, six-point concentration-response, read-out: FDSS IC50
In short: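 HEK cells stably co-expressing α1B (Cav2.2), β3 and α2δ were loaded with calcium dye, then given compound with fluorescence recorded for 5 min before 50 mM KCl depolarisation and 3 min more reading. IC50 came from six-point curves of maximal fluorescence, normalised to KCl maximum and buffer minimum.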

N-type calcium channel = N-type calcium channel (Homo sapiens, UniProt Q00975); assay: Automated Electrophysiology Assay (QPatch-HT whole-cell patch clamp; low- and high-frequency stimulation); type: cell-based
[2] = high-frequency stimulation (15th pulse), read-out: QPatch at High Frequency % Inhibition
[3] = low frequency, read-out: QPatch at Low Frequency % Inhibition

Chain of N-type calcium channel (Q00975 whole entry): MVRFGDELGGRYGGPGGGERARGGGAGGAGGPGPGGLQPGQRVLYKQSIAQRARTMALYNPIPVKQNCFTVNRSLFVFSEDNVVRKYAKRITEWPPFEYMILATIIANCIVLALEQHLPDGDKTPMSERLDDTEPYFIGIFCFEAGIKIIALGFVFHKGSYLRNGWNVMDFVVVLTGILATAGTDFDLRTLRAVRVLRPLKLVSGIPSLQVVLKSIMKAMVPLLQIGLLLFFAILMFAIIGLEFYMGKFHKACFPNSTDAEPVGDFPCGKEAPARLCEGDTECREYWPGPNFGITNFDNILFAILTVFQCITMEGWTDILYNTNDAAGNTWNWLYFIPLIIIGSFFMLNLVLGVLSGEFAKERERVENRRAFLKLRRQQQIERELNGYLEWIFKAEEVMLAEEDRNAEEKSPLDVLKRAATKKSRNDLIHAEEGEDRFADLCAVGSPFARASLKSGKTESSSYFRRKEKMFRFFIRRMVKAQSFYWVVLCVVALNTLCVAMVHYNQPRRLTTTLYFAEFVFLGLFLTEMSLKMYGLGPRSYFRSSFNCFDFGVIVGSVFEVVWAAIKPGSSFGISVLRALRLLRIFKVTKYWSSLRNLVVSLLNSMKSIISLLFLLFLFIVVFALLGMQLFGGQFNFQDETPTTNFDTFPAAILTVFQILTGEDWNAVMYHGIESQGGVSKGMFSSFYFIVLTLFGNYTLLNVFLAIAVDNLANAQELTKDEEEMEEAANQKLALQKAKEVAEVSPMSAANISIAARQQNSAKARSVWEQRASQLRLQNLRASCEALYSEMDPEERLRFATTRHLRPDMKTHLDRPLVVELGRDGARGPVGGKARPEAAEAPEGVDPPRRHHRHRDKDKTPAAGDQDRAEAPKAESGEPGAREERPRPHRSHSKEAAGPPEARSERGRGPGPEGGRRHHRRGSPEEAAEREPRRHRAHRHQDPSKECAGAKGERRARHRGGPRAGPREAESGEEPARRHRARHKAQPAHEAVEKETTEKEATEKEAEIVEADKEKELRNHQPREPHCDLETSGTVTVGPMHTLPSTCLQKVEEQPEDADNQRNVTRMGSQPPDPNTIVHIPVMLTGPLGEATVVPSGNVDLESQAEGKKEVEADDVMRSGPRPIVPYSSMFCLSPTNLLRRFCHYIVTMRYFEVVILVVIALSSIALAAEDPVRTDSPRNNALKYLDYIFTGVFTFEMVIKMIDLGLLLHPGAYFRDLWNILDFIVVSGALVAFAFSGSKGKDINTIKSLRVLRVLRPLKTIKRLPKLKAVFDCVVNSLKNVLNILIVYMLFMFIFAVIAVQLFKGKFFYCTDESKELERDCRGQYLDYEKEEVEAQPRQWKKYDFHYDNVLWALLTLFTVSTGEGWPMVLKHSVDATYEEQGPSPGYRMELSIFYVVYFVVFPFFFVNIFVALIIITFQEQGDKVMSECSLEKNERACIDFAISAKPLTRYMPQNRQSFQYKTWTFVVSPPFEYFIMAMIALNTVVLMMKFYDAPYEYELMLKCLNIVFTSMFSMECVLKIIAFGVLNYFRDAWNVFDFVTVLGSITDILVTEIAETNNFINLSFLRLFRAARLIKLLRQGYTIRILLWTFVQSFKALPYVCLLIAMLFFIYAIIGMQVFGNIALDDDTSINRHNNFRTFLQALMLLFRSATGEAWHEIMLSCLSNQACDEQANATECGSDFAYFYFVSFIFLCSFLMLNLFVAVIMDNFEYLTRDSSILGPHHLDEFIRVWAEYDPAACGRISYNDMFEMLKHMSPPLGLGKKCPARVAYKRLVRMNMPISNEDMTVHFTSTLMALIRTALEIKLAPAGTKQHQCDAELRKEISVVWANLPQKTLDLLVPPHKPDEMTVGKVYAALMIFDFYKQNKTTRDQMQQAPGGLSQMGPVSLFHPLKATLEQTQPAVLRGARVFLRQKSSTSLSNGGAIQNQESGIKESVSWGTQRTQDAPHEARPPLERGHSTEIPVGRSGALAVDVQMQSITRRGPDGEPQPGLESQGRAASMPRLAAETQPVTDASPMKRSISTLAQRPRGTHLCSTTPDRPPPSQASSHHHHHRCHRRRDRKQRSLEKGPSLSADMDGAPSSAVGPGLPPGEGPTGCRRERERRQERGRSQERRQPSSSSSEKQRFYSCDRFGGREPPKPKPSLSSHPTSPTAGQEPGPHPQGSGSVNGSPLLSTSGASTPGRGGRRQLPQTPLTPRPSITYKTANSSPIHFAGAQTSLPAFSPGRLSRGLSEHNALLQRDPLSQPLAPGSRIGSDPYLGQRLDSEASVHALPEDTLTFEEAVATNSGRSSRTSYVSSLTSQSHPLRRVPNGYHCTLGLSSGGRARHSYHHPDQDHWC
Chain of N-type calcium channel (P54284 whole entry partner): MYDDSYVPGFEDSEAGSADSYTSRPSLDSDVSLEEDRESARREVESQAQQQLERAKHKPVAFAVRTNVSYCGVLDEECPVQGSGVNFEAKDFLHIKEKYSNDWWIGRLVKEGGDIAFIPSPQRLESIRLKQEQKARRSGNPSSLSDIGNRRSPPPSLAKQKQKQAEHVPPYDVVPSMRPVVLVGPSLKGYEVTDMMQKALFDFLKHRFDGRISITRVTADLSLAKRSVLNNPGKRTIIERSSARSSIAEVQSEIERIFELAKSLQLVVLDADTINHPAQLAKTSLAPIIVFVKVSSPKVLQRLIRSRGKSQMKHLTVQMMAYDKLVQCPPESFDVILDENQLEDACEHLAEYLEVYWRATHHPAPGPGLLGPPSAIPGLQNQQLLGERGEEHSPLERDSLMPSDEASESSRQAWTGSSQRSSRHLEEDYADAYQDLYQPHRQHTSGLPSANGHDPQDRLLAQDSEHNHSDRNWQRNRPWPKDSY
Chain of N-type calcium channel (P54289 25-946 partner limits assumed): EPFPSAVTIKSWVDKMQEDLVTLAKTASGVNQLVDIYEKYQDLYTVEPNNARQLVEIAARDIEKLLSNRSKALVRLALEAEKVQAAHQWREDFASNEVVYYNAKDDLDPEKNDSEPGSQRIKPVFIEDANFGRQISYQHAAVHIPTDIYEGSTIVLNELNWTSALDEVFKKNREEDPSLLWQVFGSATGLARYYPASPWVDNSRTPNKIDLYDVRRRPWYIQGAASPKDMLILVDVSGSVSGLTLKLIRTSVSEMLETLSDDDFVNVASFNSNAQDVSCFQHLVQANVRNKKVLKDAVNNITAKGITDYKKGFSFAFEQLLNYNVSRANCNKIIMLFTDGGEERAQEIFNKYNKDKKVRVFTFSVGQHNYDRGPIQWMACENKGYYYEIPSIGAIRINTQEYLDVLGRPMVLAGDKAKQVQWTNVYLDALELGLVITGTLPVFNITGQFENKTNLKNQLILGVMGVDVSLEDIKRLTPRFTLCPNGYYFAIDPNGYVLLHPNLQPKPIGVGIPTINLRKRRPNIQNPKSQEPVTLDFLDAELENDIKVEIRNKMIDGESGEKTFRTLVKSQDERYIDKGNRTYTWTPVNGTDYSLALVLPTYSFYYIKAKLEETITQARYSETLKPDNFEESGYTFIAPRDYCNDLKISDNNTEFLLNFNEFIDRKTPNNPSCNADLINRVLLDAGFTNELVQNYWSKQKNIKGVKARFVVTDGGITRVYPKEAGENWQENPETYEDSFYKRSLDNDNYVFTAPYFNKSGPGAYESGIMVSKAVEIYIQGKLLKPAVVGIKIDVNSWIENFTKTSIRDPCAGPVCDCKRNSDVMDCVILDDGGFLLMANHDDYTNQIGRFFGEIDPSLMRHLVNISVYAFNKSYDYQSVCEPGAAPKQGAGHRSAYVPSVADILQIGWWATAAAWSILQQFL
Chain of N-type calcium channel (P54289 947-1103 partner limits assumed): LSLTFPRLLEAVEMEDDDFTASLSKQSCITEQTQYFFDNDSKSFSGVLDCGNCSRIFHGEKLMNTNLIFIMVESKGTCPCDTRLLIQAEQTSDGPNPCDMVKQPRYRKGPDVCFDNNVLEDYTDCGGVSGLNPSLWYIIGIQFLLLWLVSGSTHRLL
Chain of N-type calcium channel (α1B (Cav2.2), β3 and α2δ subunits) (Q00975 whole entry): as the sequence (Q00975 whole entry) above
Chain of N-type calcium channel (α1B (Cav2.2), β3 and α2δ subunits) (P54284 whole entry partner): as the sequence (P54284 whole entry partner) above
Chain of N-type calcium channel (α1B (Cav2.2), β3 and α2δ subunits) (P54289 25-946 partner limits assumed): as the sequence (P54289 25-946 partner limits assumed) above
Chain of N-type calcium channel (α1B (Cav2.2), β3 and α2δ subunits) (P54289 947-1103 partner limits assumed): as the sequence (P54289 947-1103 partner limits assumed) above

IC50 [1] | inhibition at 0.1 µM (N-type calcium channel; [2]) | inhibition at 0.1 µM (N-type calcium channel; [3]) | inhibition at 0.33 µM [1] | inhibition at 0.25 µM (N-type calcium channel; [2]) | inhibition at 1 µM (N-type calcium channel; [2]) | inhibition at 0.25 µM (N-type calcium channel; [3]) | inhibition at 1 µM (N-type calcium channel; [3]) | inhibition at 0.03 µM (N-type calcium channel; [2]) | inhibition at 0.03 µM (N-type calcium channel; [3]) | SMILES
11 nM | -14% | -16% | – | – | – | – | – | – | – | O=C1Cc2nn(-c3ccccc3OC(F)(F)F)c(-c3ccc(Cl)cc3)c2C1 [Compound 27, 3-(4-chlorophenyl)-2-[2-(trifluoromethoxy)phenyl]-2,6-dihydrocyclopenta[c]pyrazol-5(4H)-one]
15 nM | 45% | 25% | – | – | – | – | – | – | – | COc1ccccc1-n1nc2c(c1-c1ccc(Cl)cc1)CC(OC(=O)N(C)C)C2 (stereo not drawn) [Compound 28, 3-(4-chlorophenyl)-2-(2-methoxyphenyl)-2,4,5,6-tetrahydrocyclopenta[c]pyrazol-5-yl dimethylcarbamate]
43 nM | 21% | -8% | – | – | – | – | – | – | – | COc1ccccc1-n1nc2c(c1-c1ccc(Cl)cc1)CC(OC(=O)N1CCOCC1)C2 (stereo not drawn) [Compound 29, 3-(4-chlorophenyl)-2-(2-methoxyphenyl)-2,4,5,6-tetrahydrocyclopenta[c]pyrazol-5-yl morpholine-4-carboxylate]
28 nM | 25% | 9% | – | – | – | – | – | – | – | CCOc1ccccc1-n1nc2c(c1-c1ccc(Cl)cc1)CC(OC(=O)N(C)C)C2 (stereo not drawn) [Compound 30, 3-(4-chlorophenyl)-2-(2-ethoxyphenyl)-2,4,5,6-tetrahydrocyclopenta[c]pyrazol-5-yl dimethylcarbamate]
18 nM | 22% | 14% | – | – | – | – | – | – | – | CCOc1ccccc1-n1nc2c(c1-c1ccc(Cl)cc1)CC(OC(=O)N1CCOCC1)C2 (stereo not drawn) [Compound 31, 3-(4-chlorophenyl)-2-(2-ethoxyphenyl)-2,4,5,6-tetrahydrocyclopenta[c]pyrazol-5-yl morpholine-4-carboxylate]
26 nM | 20% | 18% | – | – | – | – | – | – | – | COc1ccccc1-n1nc2c(c1-c1ccc(Cl)cc1)CC(NS(C)(=O)=O)C2 (stereo not drawn) [Compound 32, N-[3-(4-chlorophenyl)-2-(2-methoxyphenyl)-2,4,5,6-tetrahydrocyclopenta[c]pyrazol-5-yl]methanesulfonamide]
18 nM | 42% | 35% | – | – | – | – | – | – | – | COc1ccccc1-n1nc2c(c1-c1ccc(Cl)cc1)CC(NS(=O)(=O)C(C)C)C2 (stereo not drawn) [Compound 33, N-[3-(4-chlorophenyl)-2-(2-methoxyphenyl)-2,4,5,6-tetrahydrocyclopenta[c]pyrazol-5-yl]propane-2-sulfonamide]
14 nM | 37% | 34% | – | – | – | – | – | – | – | COc1ccccc1-n1nc2c(c1-c1ccc(Cl)cc1)CC(NS(=O)(=O)N(C)C)C2 (stereo not drawn) [Compound 34, N′-[3-(4-chlorophenyl)-2-(2-methoxyphenyl)-2,4,5,6-tetrahydrocyclopenta[c]pyrazol-5-yl]-N,N-dimethylsulfamide]
29 nM | 26% | 18% | – | – | – | – | – | – | – | CCOc1ccccc1-n1nc2c(c1-c1ccc(Cl)cc1)CC(=O)C2 [Compound 36, 3-(4-chlorophenyl)-2-(2-ethoxyphenyl)-2,6-dihydrocyclopenta[c]pyrazol-5(4H)-one]
6.4 nM | 46% | 44% | – | – | – | – | – | – | – | COc1ccccc1-n1nc2c(c1-c1ccc(Cl)cc1)CC(N(C)S(C)(=O)=O)C2 (stereo not drawn) [Compound 37, N-[3-(4-chlorophenyl)-2-(2-methoxyphenyl)-2,4,5,6-tetrahydrocyclopenta[c]pyrazol-5-yl]-N-methylmethanesulfonamide]
7.5 nM | 53% | 47% | – | – | – | – | – | – | – | CCOc1ccccc1-n1nc2c(c1-c1ccc(Cl)cc1)CC(N1C(=O)CCC1=O)C2 (stereo not drawn) [Compound 38, 1-[3-(4-chlorophenyl)-2-(2-ethoxyphenyl)-2,4,5,6-tetrahydrocyclopenta[c]pyrazol-5-yl]pyrrolidine-2,5-dione]
38 nM | 29% | 13% | 81% | 47% | 72% | 34% | 51% | – | – | CCOc1ccccc1-n1nc2c(c1-c1ccc(Cl)cc1)CC(n1ccnc1)C2 (stereo not drawn) [Compound 39, 3-(4-chlorophenyl)-2-(2-ethoxyphenyl)-5-(1H-imidazol-1-yl)-2,4,5,6-tetrahydrocyclopenta[c]pyrazole]
24 nM | 60% | 58% | 92% | – | – | – | – | – | – | CCOc1ccccc1-n1nc2c(c1-c1ccc(Cl)cc1)CC(n1cc([Si](C)(C)C)nn1)C2 (stereo not drawn) [Compound 41, 3-(4-chlorophenyl)-2-(2-ethoxyphenyl)-5-[4-(trimethylsilyl)-1H-1,2,3-triazol-1-yl]-2,4,5,6-tetrahydrocyclopenta[c]pyrazole]
19 nM | – | – | 91% | – | 87% | – | 86% | – | – | CCOc1ccccc1-n1nc2c(c1-c1ccc(Cl)cc1)CC(n1ccnn1)C2 (stereo not drawn) [Compound 42, 3-(4-chlorophenyl)-2-(2-ethoxyphenyl)-5-(1H-1,2,3-triazol-1-yl)-2,4,5,6-tetrahydrocyclopenta[c]pyrazole]
42 nM | 5% | -22% | 87% | – | – | – | – | – | – | CCOc1ccccc1-n1nc2c(c1-c1ccc(Cl)cc1)C[C@@H](n1ccnc1)C2 [Compound 43, (5R)-3-(4-chlorophenyl)-2-(2-ethoxyphenyl)-5-(1H-imidazol-1-yl)-2,4,5,6-tetrahydrocyclopenta[c]pyrazole]
32 nM | 48% | 42% | 89% | – | – | – | – | – | – | CCOc1ccccc1-n1nc2c(c1-c1ccc(Cl)cc1)C[C@@H](NS(=O)(=O)C(C)C)C2 [Compound 44, N-[(5R)-3-(4-chlorophenyl)-2-(2-ethoxyphenyl)-2,4,5,6-tetrahydrocyclopenta[c]pyrazol-5-yl]propane-2-sulfonamide]
4 nM | 68% | 60% | 94% | – | – | – | – | – | – | CCOc1ccccc1-n1nc2c(c1-c1ccc(Cl)cc1)C[C@@H](NC(=O)C(F)(F)F)C2 [Compound 45, N-[(5R)-3-(4-chlorophenyl)-2-(2-ethoxyphenyl)-2,4,5,6-tetrahydrocyclopenta[c]pyrazol-5-yl]-2,2,2-trifluoroacetamide]
2.6 nM | 50% | 21% | 99% | – | – | – | – | – | – | CCOc1ccccc1-n1nc2c(c1-c1ccc(Cl)cc1)C[C@@H](N(C)S(=O)(=O)N(C)C)C2 [Compound 46, N-[(5R)-3-(4-chlorophenyl)-2-(2-ethoxyphenyl)-2,4,5,6-tetrahydrocyclopenta[c]pyrazol-5-yl]-N,N′,N′-trimethylsulfamide]
4 nM | 19% | 15% | 92% | – | – | – | – | – | – | CCOc1ccccc1-n1nc2c(c1-c1ccc(Cl)cc1)CC(NS(=O)(=O)N(C)C)C2 (stereo not drawn) [Compound 47, N′-[3-(4-chlorophenyl)-2-(2-ethoxyphenyl)-2,4,5,6-tetrahydrocyclopenta[c]pyrazol-5-yl]-N,N-dimethylsulfamide]
1.2 nM | 63% | 52% | 97% | – | – | – | – | – | – | CCOc1ccccc1-n1nc2c(c1-c1ccc(Cl)cc1)CC(N(C)S(=O)(=O)N(C)C)C2 (stereo not drawn) [Compound 48, N-[3-(4-chlorophenyl)-2-(2-ethoxyphenyl)-2,4,5,6-tetrahydrocyclopenta[c]pyrazol-5-yl]-N,N′,N′-trimethylsulfamide]
14 nM | 41% | 33% | 95% | – | – | – | – | – | – | CN(C)S(=O)(=O)N(C)[C@@H]1Cc2nn(-c3cccc4c3OCC4)c(-c3ccc(Cl)cc3)c2C1 [Compound 50, N-[(5S)-3-(4-chlorophenyl)-2-(2,3-dihydro-1-benzofuran-7-yl)-2,4,5,6-tetrahydrocyclopenta[c]pyrazol-5-yl]-N,N′,N′-trimethylsulfamide]
34 nM | – | – | 94% | – | 66% | – | 49% | – | – | CC(C)S(=O)(=O)N(C)[C@@H]1Cc2nn(-c3cccc4c3OCC4)c(-c3ccc(Cl)cc3)c2C1 [Compound 51, N-[(5S)-3-(4-chlorophenyl)-2-(2,3-dihydro-1-benzofuran-7-yl)-2,4,5,6-tetrahydrocyclopenta[c]pyrazol-5-yl]-N-methylpropane-2-sulfonamide]
50 nM | – | – | 86% | – | 67% | – | 55% | – | – | COc1ccccc1-n1nc2c(c1-c1ccc(Cl)cc1)CC1(C2)OCCCO1 [Compound 54, 3-(4-chlorophenyl)-2-(2-methoxyphenyl)-2,6-dihydro-4H-spiro[cyclopenta[c]pyrazole-5,2′-[1,3]dioxane]]
11 nM | 29% | 12% | 95% | – | 79% | – | 57% | 19% | 15% | CCC(CC)C(=O)O[C@H]1Cc2nn(-c3ccccc3OC)c(-c3ccc(Cl)cc3)c2C1 [Compound 55, (5R)-3-(4-chlorophenyl)-2-(2-methoxyphenyl)-2,4,5,6-tetrahydrocyclopenta[c]pyrazol-5-yl 2-ethylbutanoate]
